Experimental data from patent US10030047B2 (Hoffmann-La Roche Inc., priority 2015, dated 2018).
≈ marks a conversion by molar mass, not a printed value. Where two headings read alike, the source gives them in different places.

System: A. baumannii strain ATCC19606
Test: Minimum inhibitory concentration (MIC) determination, microbroth dilution (CLSI)
Assay type: cell-based
Settings: Acinetobacter baumannii, read-out: ATCC19606 MIC
Description: The in vitro antimicrobial activity of the compounds was determined through microbroth minimum inhibitory concentration (MIC) methodology performed according to the Clinical and Laboratory Standard Institute guidelines (CLSI—M07-A9 Jan. 2012. Methods for Dilution Antimicrobial Susceptibility Tests for Bacteria That Grow Aerobically; Approved Standard—Ninth Edition, Clinical and Laboratory Standards Institute, Wayne/PA, US and the CLSI—M100-S24 Jan. 2014. Performance Standards for Antimicrobial Susceptibility Testing; Approved Standard—Fourth Informational Supplement, Clinical and Laboratory Standards Institute, Wayne/PA, US).
The compound stock solution was freshly prepared at 10× the required top concentration for the MIC determination, i.e. at 1280 mg/L, by reconstitution of the dry compound in 50:50 water:DMSO.
Polystyrene non-treated 96 wells microtiter plates were used for preparing panel containing compound serial twofold diluted at two times the final testing concentration (e.g. range from 64 to 0.06 μg/ml) in cation adjusted Mueller Hinton broth medium (CAMHB).
Inoculum was prepared by the “direct colony suspension method”. Colonies of A. baumannii ATCC19606 or clinical isolates were suspended in saline solution and adjusted to 0.5 McFarland, diluted 100 times in CAMHB broth and 50 μl added to each well (final concentration of cells ˜5×10^(5) CFU/ml and Final volume/well of 100 μl). Microtiter plates were sealed and incubated at 35±2° C.
MICs values were read after 20 hours of incubation and recorded as the lowest concentration of the antimicrobial that inhibits more or equal to 80% of growth of the organism as detected by the unaided eye and using a microtiter plate optical density reader (OD 600 nm).
Tables 2, 3, 4 and 5 provide the minimum inhibitory concentration (MIC) in microgram per milliliter of the compounds of present invention obtained against the A. baumannii strain ATCC19606 (Tables 2, 3, 4 and 5).

[1] = A. baumannii ATCC19606, CAMHB, read after 20 hours, >=80% growth inhibition

| Compound | MIC [1] | MIC (ATCC19606, 20 h) |
| --- | --- | --- |
| CN1C(=O)[C@H](CCCCN)NC(=O)[C@H](CCCN)NCc2ccccc2Sc2c(Cl)ccc(Cl)c2CNC(=O)[C@@H]1Cc1c[nH]c2ccccc12 [Example 23, (12S,15S,18S)-15-(4-Amino-butyl)-18-(3-amino-propyl)-4,7-dichloro-12-(1H-indol-3-ylmethyl)-13-methyl-2-thia-10,13,16,19-tetraaza-tricyclo[19.4.0.0*3,8*]pentacosa-1(25),3,5,7,21,23-hexaene-11,14,17-trione] | 0.5 µg/mL (≈ 0.677 µM) |  |
| CN1C(=O)[C@H](CCCCN)NC(=O)[C@H](CCCN)NCc2cnccc2Sc2c(Cl)cc(C(F)(F)F)cc2CNC(=O)[C@@H]1Cc1c[nH]c2ccccc12 [Example 156, (7S,10S,13S)— 13-((1H-Indol-3-yl)methyl)-10-(4-aminobutyl)-7-(3-aminopropyl)-20-chloro-12-methyl-18-(trifluoromethyl)-6,7,9,10,12,13,15,16-octahydrobenzo[b]pyrido[3,4-p][1,5,8,11,14]thiatetraazacycloheptadecine-8,11,14(5H)-trione] | 1 µg/mL (≈ 1.29 µM) |  |
| CN1C(=O)[C@H](CCCCN)NC(=O)[C@H](CCCN)NCc2cccnc2Sc2c(cc(C(F)(F)F)cc2C(F)(F)F)CNC(=O)[C@@H]1Cc1c[nH]c2ccccc12 [Example 91, (11S,14S,17S)-14-(4-Amino-butyl)-11-(3-amino-propyl)-17-(1H-indol-3-ylmethyl)-16-methyl-23,25-bis-trifluoromethyl-2-thia-4,10,13,16,19-pentaaza-tricyclo[19.4.0.0*3,8*]pentacosa-1(25),3,5,7,21,23-hexaene-12,15,18-trione] | 0.5 µg/mL (≈ 0.62 µM) |  |
| CN1C(=O)[C@H](CCCCN)NC(=O)[C@H](CCCN)NCc2cccnc2Sc2c(Cl)cccc2CNC(=O)[C@@H]1Cc1c[nH]c2ccccc12 [Example 28, (11S,14S,17S)-14-(4-Amino-butyl)-11-(3-amino-propyl)-25-chloro-17-(1H-indol-3-ylmethyl)-16-methyl-2-thia-4,10,13,16,19-pentaaza-tricyclo[19.4.0.0*3,8*]pentacosa-1(25),3,5,7,21,23-hexaene-12,15,18-trione] | 2 µg/mL (≈ 2.84 µM) |  |
| CN1C(=O)[C@H](CCCCN)NC(=O)[C@H](CCCN)NCc2cccnc2Sc2c(Cl)ccc(C(F)(F)F)c2CNC(=O)[C@@H]1Cc1c[nH]c2ccccc12 [Example 39, (11S,14S,17S)-14-(4-Amino-butyl)-11-(3-amino-propyl)-25-chloro-17-(1H-indol-3-ylmethyl)-16-methyl-22-trifluoromethyl-2-thia-4,10,13,16,19-pentaaza-tricyclo[19.4.0.0*3,8*]pentacosa-1(25),3,5,7,21,23-hexaene-12,15,18-trione] | 0.5 µg/mL (≈ 0.647 µM) |  |
| CN1C(=O)[C@H](CCCCN)NC(=O)[C@H](CCCN)NCc2cccnc2Sc2ccc(Cl)c(Cl)c2CNC(=O)[C@@H]1Cc1c[nH]c2ccccc12 [Example 37, (11S,14S,17S)-14-(4-Amino-butyl)-11-(3-amino-propyl)-22,23-dichloro-17-(1H-indol-3-ylmethyl)-16-methyl-2-thia-4,10,13,16,19-pentaaza-tricyclo[19.4.0.0*3,8*]pentacosa-1(25),3,5,7,21,23-hexaene-12,15,18-trione] | 2 µg/mL (≈ 2.7 µM) |  |
| CN1C(=O)[C@H](CCCCN)NC(=O)[C@H](CCCN)NCc2ccccc2Sc2ccccc2CNC(=O)[C@@H]1Cc1cn(C)c2cc(Cl)ccc12 [Example 16, (12S,15S,18S)-15-(4-Amino-butyl)-18-(3-amino-propyl)-12-(6-chloro-1-methyl-1H-indol-3-ylmethyl)-13-methyl-2-thia-10,13,16,19-tetraaza-tricyclo[19.4.0.0*3,8*]pentacosa-1(21),3,5,7,22,24-hexaene-11,14,17-trione] | 32 µg/mL (≈ 44.5 µM) |  |
| CN1C(=O)[C@H](CCCCN)NC(=O)[C@H](CCCN)NCc2ccccc2Sc2ccc(Cl)c(Cl)c2CNC(=O)[C@@H]1Cc1c[nH]c2ccccc12 [Example 21, (12S,15S,18S)-15-(4-Amino-butyl)-18-(3-amino-propyl)-6,7-dichloro-12-(1H-indol-3-ylmethyl)-13-methyl-2-thia-10,13,16,19-tetraaza-tricyclo[19.4.0.0*3,8*]pentacosa-1(25),3,5,7,21,23-hexaene-11,14,17-trione] | 1 µg/mL (≈ 1.35 µM) |  |
| CN1C(=O)[C@H](CCCCN)NC(=O)[C@H](CCCN)NCc2cc(F)ccc2Sc2c(Cl)cccc2CNC(=O)[C@@H]1Cc1c[nH]c2ccccc12 [Example 64, (12S,15S,18S)-15-(4-Amino-butyl)-18-(3-amino-propyl)-4-chloro-23-fluoro-12-(1H-indol-3-ylmethyl)-13-methyl-2-thia-10,13,16,19-tetraaza-tricyclo[19.4.0.0*3,8*]pentacosa-1(25),3,5,7,21,23-hexaene-11,14,17-trione] | 32 µg/mL (≈ 44.3 µM) |  |
| CN1C(=O)[C@H](CCCCN)NC(=O)[C@H](CCCN)NCc2ccccc2Sc2c(Cl)cc(-c3ccn(C)n3)cc2CNC(=O)[C@@H]1Cc1c[nH]c2ccccc12 [Example 144, (12S,15S,18S)-15-(4-Amino-butyl)-18-(3-amino-propyl)-4-chloro-12-(1H-indol-3-ylmethyl)-13-methyl-6-(1-methyl-1H-pyrazol-3-yl)-2-thia-10,13,16,19-tetraaza-tricyclo[19.4.0.0*3,8*]pentacosa-1(25),3,5,7,21,23-hexaene-11,14,17-trione] | 1 µg/mL (≈ 1.27 µM) |  |
| CN1CCN(c2cc(-c3cc(Cl)c4c(c3)CNC(=O)[C@H](Cc3c[nH]c5ccccc35)N(C)C(=O)[C@H](CCCCN)NC(=O)[C@H](CCCN)NCc3cccnc3S4)ccn2)CC1 [Example 115, (11S,14S,17S)-14-(4-Amino-butyl)-11-(3-amino-propyl)-25-chloro-17-(1H-indol-3-ylmethyl)-16-methyl-23-[2-(4-methyl-piperazin-1-yl)-pyridin-4-yl]-2-thia-4,10,13,16,19-pentaaza-tricyclo[19.4.0.0*3,8*]pentacosa-1(25),3,5,7,21,23-hexaene-12,15,18-trione] | 2 µg/mL (≈ 2.27 µM) |  |
| CN1C(=O)[C@H](CCCCN)NC(=O)[C@H](CCCN)NCc2ccccc2Sc2c(Cl)cc(C(F)(F)F)cc2CNC(=O)[C@@H]1Cc1c[nH]c2ccccc12 [Example 25, (12S,15S,18S)-15-(4-Amino-butyl)-18-(3-amino-propyl)-4-chloro-12-(1H-indol-3-ylmethyl)-13-methyl-6-trifluoromethyl-2-thia-10,13,16,19-tetraaza-tricyclo[19.4.0.0*3,8*]pentacosa-1(25),3,5,7,21,23-hexaene-11,14,17-trione] | 1 µg/mL (≈ 1.29 µM) |  |
| CN1C(=O)[C@H](CCCCN)NC(=O)[C@H](CCCN)NCc2ccccc2Sc2ccccc2CNC(=O)[C@@H]1Cc1c[nH]c2cc(Cl)ccc12 [Example 15, (12S,15S,18S)-15-(4-Amino-butyl)-18-(3-amino-propyl)-12-(6-chloro-1H-indol-3-ylmethyl)-13-methyl-2-thia-10,13,16,19-tetraaza-tricyclo[19.4.0.0*3,8*]pentacosa-1(21),3,5,7,22,24-hexaene-11,14,17-trione] | 32 µg/mL (≈ 45.4 µM) |  |
| CN1C(=O)[C@H](CCCCN)NC(=O)[C@H](CCCN)NCc2cccnc2Sc2c(Cl)ccc(Cl)c2CNC(=O)[C@@H]1Cc1c[nH]c2ccccc12 [Example 38, (11S,14S,17S)-14-(4-Amino-butyl)-11-(3-amino-propyl)-22,25-dichloro-17-(1H-indol-3-ylmethyl)-16-methyl-2-thia-4,10,13,16,19-pentaaza-tricyclo[19.4.0.0*3,8*]pentacosa-1(25),3(8),4,6,21,23-hexaene-12,15,18-trione] |  | 0.5 µg/mL (≈ 0.676 µM) |
| CCN1C(=O)[C@H](CCCCN)NC(=O)[C@H](CCCN)NCc2ccccc2Sc2c(Cl)cccc2CNC(=O)[C@@H]1Cc1c[nH]c2ccccc12 [Example 45, (12S,15S,18S)-15-(4-Amino-butyl)-18-(3-amino-propyl)-4-chloro-13-ethyl-12-(1H-indol-3-ylmethyl)-2-thia-10,13,16,19-tetraaza-tricyclo[19.4.0.0*3,8*]pentacosa-1(21),3,5,7,22,24-hexaene-11,14,17-trione] | 0.5 µg/mL (≈ 0.696 µM) |  |
| CCN1C(=O)[C@H](CCCCN)NC(=O)[C@H](CCCN)NCc2ccccc2Sc2ccc(OC)cc2CNC(=O)[C@@H]1Cc1c[nH]c2ccccc12 [Example 44, (12S,15S,18S)-15-(4-Amino-butyl)-18-(3-amino-propyl)-13-ethyl-12-(1H-indol-3-ylmethyl)-6-methoxy-2-thia-10,13,16,19-tetraaza-tricyclo[19.4.0.0*3,8*]pentacosa-1(21),3,5,7,22,24-hexaene-11,14,17-trione] | 0.5 µg/mL (≈ 0.7 µM) |  |
| Cc1[nH]c2ccccc2c1C[C@H]1C(=O)NCc2cc(-c3ccc(S(C)(=O)=O)cc3)cc(Cl)c2Sc2ncccc2CN[C@@H](CCCN)C(=O)N[C@@H](CCCCN)C(=O)N1C [Example 234, (11S,14S,17S)-14-(4-Amino-butyl)-11-(3-amino-propyl)-25-chloro-23-(4-methanesulfonyl-phenyl)-16-methyl-17-(2-methyl-1H-indol-3-ylmethyl)-2-thia-4,10,13,16,19-pentaaza-tricyclo[19.4.0.0*3,8*]pentacosa-1(25),3(8),4,6,21,23-hexaene-12,15,18-trione] | 2 µg/mL (≈ 2.29 µM) |  |
